Earlier results, collected in patent US20070066591A1, “Compounds, compositions, and methods” (priority 2003, published 2007).

Test system: A549 cells
Conditions: data provided by National Cancer Institute, Developmental Therapeutic Program

Compared with `O=c1[nH]cc(F)c(=O)[nH]1` [5-fluorouracil], `COc1cccc2c1C(=O)c1c(O)c3c(c(O)c1C2=O)C[C@@](O)(C(=O)CO)C[C@@H]3O[C@H]1C[C@H](N)[C@H](O)[C@H](C)O1` [doxorubicin] is 16-fold lower in GI50: 1000 nM for the first, 63 nM for the second.

Going from `NC(=O)NO` [hydroxyurea] to `CC(=O)O[C@H]1C(=O)[C@@]2(C)[C@H]([C@H](OC(=O)c3ccccc3)[C@]3(O)C[C@H](OC(=O)[C@H](O)[C@@H](NC(=O)c4ccccc4)c4ccccc4)C(C)=C1C3(C)C)[C@]1(OC(C)=O)CO[C@@H]1C[C@@H]2O` [paclitaxel], the GI50 falls from 500000 nM to 4 nM.
